Test results from the supplement of paper PMC7394473.

Legend:
Details in all cases: 72 h
[1] = tested on: U2OS; assay: fractional viability (live cells / total cells); higher = less cell death
Experimental: (§1)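 U2OS::Nuc-mKate2 cells seeded in 96-well plates and treated with eight- to ten-point half-log or log dilutions of drug in the presence of 50 nM SYTOX Green. Live (mKate2+) and dead (SYTOX+) cells were counted by IncuCyte STACK live-cell microscopy at 72 h; biological triplicates. GR is the normalised growth-rate inhibition value (Hafner 2016; 1 = untreated growth, <0 = population shrinking). FV is live/(live+dead) cells, not normalised.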

[2] = tested on: U2OS; assay: normalized growth rate inhibition value (GR) relative to untreated cells (GR value (dimensionless, 1 = untreated growth)); higher = less growth inhibition
Experimental: as §1

[3] = tested on: U2OS; assay: drug GRADE (percent of response due to cell death) (% (0-100)); higher = more death-driven response
Experimental: (§2)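 U2OS cells treated with full dose titrations of drug; live and dead cells counted by STACK microscopy (mKate2 nuclei, SYTOX Green) at 72 h, biological triplicates. GR and FV dose responses were fitted with 4-parameter logistic models (GR lower bound -1). GRADE (0-100) is the rescaled angle of a linear fit of FV versus GR at doses with GR >= 0, giving the percentage of the response due to cell death.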

[4] = tested on: U2OS; assay: GRmin (fitted minimal GR value at highest effect) (GR value (dimensionless)); higher = less efficacious
Experimental: as §2

[5] = tested on: U2OS; assay: GR50 (concentration giving GR = 0.5)
Experimental: as §2

O=C(c1cc(Cc2n[nH]c(=O)c3ccccc23)ccc1F)N1CCN(C(=O)C2CC2)CC1 [Olaparib]
Details	fractional viability, [1]	normalized growth rate inhibition value, [2]
0.00100578 µM	0.992	1.03
0.00317827 µM	0.988	0.94
0.0100433 µM	0.989	1.03
0.0317369 µM	0.992	1.02
0.100289 µM	0.99	0.964
0.316912 µM	0.989	0.956
1.00144 µM	0.987	0.922
3.16456 µM	0.982	0.85
10 µM	0.96	0.511

Details	drug GRADE
[3]	6.58

C=CCNc1ncnc2ccc(Br)cc12 [SMER28]
Details	fractional viability, [1]	normalized growth rate inhibition value, [2]
0.01 µM	0.977	1.03
0.0316 µM	0.977	1.09
0.1 µM	0.98	0.962
0.316 µM	0.979	1.02
1 µM	0.982	1.02
3.16 µM	0.975	0.992
10 µM	0.973	0.909
31.6 µM	0.977	0.866

Details	GRmin
[4]	0.864

Cc1cc(C(C)Nc2ccccc2)c2nc(N3CCOCC3)cc(=O)n2c1 (stereo unspecified) [TGX221]
Details	fractional viability, [1]	normalized growth rate inhibition value, [2]
0.00100578 µM	0.988	1.1
0.00317827 µM	0.986	1.06
0.0100433 µM	0.988	1.04
0.0317369 µM	0.986	1.02
0.100289 µM	0.988	0.94
0.316912 µM	0.99	1.02
1.00144 µM	0.986	0.955
3.16456 µM	0.986	1.08
10 µM	0.977	1

Details	GRmin
[4]	0.951

Cc1nc(-c2cn3c(n2)-c2ccc(-c4cnn(C(C)(C)C(N)=O)c4)cc2OCC3)n(C(C)C)n1 [Taselisib]
Details	GR50 [µM]	drug GRADE
[3]	–	24.5
[5]	4.98	–

Details	fractional viability, [1]	normalized growth rate inhibition value, [2]
0.00100578 µM	0.987	1
0.00317827 µM	0.983	0.924
0.0100433 µM	0.979	0.852
0.0317369 µM	0.973	0.765
0.100289 µM	0.964	0.83
0.316912 µM	0.952	0.69
1.00144 µM	0.959	0.669
3.16456 µM	0.937	0.604
10 µM	0.856	0.389

Cn1nnc2c(C(N)=O)ncn2c1=O [Temozolamide]
Details	fractional viability, [1]	normalized growth rate inhibition value, [2]
0.01 µM	0.982	0.992
0.0316 µM	0.982	1.07
0.1 µM	0.981	0.975
0.316 µM	0.977	1.05
1 µM	0.975	0.984
3.16 µM	0.978	0.894
10 µM	0.98	0.954
31.6 µM	0.975	1.02

Details	GRmin
[4]	0.955

Nc1ccc(-c2ccc3ncc4ccc(=O)n(-c5cccc(C(F)(F)F)c5)c4c3c2)cn1 [Torin2]
Details	fractional viability, [1]	normalized growth rate inhibition value, [2]
0.000100578 µM	0.988	0.795
0.000317827 µM	0.985	0.854
0.00100433 µM	0.986	0.924
0.00317369 µM	0.988	0.826
0.0100289 µM	0.988	0.841
0.0316912 µM	0.989	0.85
0.100144 µM	0.987	0.832
0.316456 µM	0.985	0.916
1 µM	0.971	0.523

Details	GRmin	drug GRADE
[3]	–	4.29
[4]	-0.853	–

CC(=O)Nc1cccc(-n2c(=O)n(C3CC3)c(=O)c3c(Nc4ccc(I)cc4F)n(C)c(=O)c(C)c32)c1 [Trametinib]
Details	fractional viability, [1]	normalized growth rate inhibition value, [2]
0.000100578 µM	0.978	0.839
0.000317827 µM	0.974	0.677
0.00100433 µM	0.965	0.696
0.00317369 µM	0.951	0.569
0.0100289 µM	0.915	0.582
0.0316912 µM	0.732	0.319
0.100144 µM	0.524	0.0761
0.316456 µM	0.442	0.0524
1 µM	0.466	0.0402

CC[C@]1(O)C[C@@H]2CN(CCc3c([nH]c4ccccc34)[C@@](C(=O)OC)(c3cc4c(cc3OC)N(C)[C@H]3[C@@](O)(C(=O)OC)[C@H](OC(C)=O)[C@]5(CC)C=CCN6CC[C@]43[C@@H]65)C2)C1 [Vinblastine]
Details	fractional viability, 0.00316 µM	fractional viability, 0.0316 µM	fractional viability, 0.316 µM	fractional viability, 3.16 µM	fractional viability, 31.6 µM	normalized growth rate inhibition value, 0.00316 µM	normalized growth rate inhibition value, 0.0316 µM	normalized growth rate inhibition value, 0.316 µM	normalized growth rate inhibition value, 3.16 µM	normalized growth rate inhibition value, 31.6 µM
[1]	0.426	0.5	0.467	0.416	0.166	–	–	–	–	–
[2]	–	–	–	–	–	0.057	0.0629	0.0107	-0.0225	-0.258

Details	drug GRADE
[3]	3.36
